Results from patent US4935418A, “Medical compositions of 1-aryloxy-2,3,4,5-tetrahydro-3-benzazepines and use thereof” (Hoechst-Roussel Pharmaceuticals Inc., priority 1988, dated 1990).
Where a name gives a salt, the structure may show the parent alone.

Legend:
Type in all cases: in vivo
[1] = test system: 5-hydroxytryptophan induced seizures in rats; assay: potentiation of 5-hydroxytryptophan induced seizures in rats; conditions: Rattus norvegicus, ip, intraperitoneal, read-out: ED50 (potentiation of 5-hydroxytryptophan induced seizures in 50% of the animals)
Source text: The antidepressant activities of some of the compounds of the invention expressed in terms of a potentiation of 5-hydroxytryptophan induced seizures in 50% of the animals is given in Table II.

[2] = test system: spontaneous hypertensive rat; assay: antihypertensive activity in the spontaneous hypertensive rat, indirect tail cuff method; conditions: 50 mg/kg of body weight, oral, three days, measured on third day
Protocol: In this procedure a group of five animals are treated orally for three days with the test compound in relation to the control group of the same number. The drop in blood pressure is measured on the third day following administration.

[3] = test system: 2-phenyl-1,4-benzoquinone-induced writhing in mice; assay: 2-phenyl-1,4-benzoquinone-induced writhing test in mice; conditions: Mus musculus, sc
Source text: The compounds of the invention are also useful as analgesic agents due to their ability to alleviate pain in mammals. […] Exptl. Biol. Med., 95, 729 (1957)].

[4] = test system: tetrabenazine induced ptosis in mice; assay: inhibition of tetrabenazine induced ptosis in mice; conditions: Mus musculus, oral, read-out: ED50 (50% inhibition of tetrabenazine-induced ptosis)
Source text: The antidepressant activities of some of the compounds of the invention expressed in terms of a 50% inhibition of ptosis of tetrabenazine-induced ptosis in mice is given in Table I.

Structure (SMILES)	ED50 [1] [mg/kg]	Decrease in Blood Pressure (mean arterial) [2] [mm HG]	also measured
CCCN1CCc2cc(OC)c(OC)cc2C(Oc2ccccc2)C1.O=C(O)C(=O)O (centres unmarked) [7,8-Dimethoxy-1-phenoxy-3-(n-propyl)-2,3,4,5-tetrahydro-3-benzazepine oxalate]	0.7	–	–
N=C(N)NCCN1CCCCCCC1 [guanethidine, reference compound]	–	20	–
NCCCN1CCc2ccccc2C(Oc2ccc(C(F)(F)F)cc2)C1 (centres unmarked) [3-(3-Aminopropyl)-2,3,4,5-tetrahydro-1-(p-trifluoromethylphenoxy)-3-benzazepine dimaleate]	–	–	inhibition in vivo at 8.2 mg/kg ([3]; subcutaneous, 8.2 mg/kg, mice): 50%
COc1cc2c(cc1OC)C(Oc1ccccc1)CN(C)CC2.O=C(O)C(=O)O (centres unmarked) [7,8-Dimethoxy-3-methyl-1-phenoxy-2,3,4,5-tetrahydro-3-benzazepine oxalate]	7.5	–	ED50 [4]: 3.8 mg/kg; inhibition in vivo at 20 mg/kg ([3]; subcutaneous, mice): 58%
Br.COc1ccc(OC2CN(C)CCc3ccccc32)cc1 (centres unmarked) [1-(p-Methoxyphenoxy)-3-methyl-2,3,4,5-tetrhydro-3-benzazepine hydrobromide]	–	48	inhibition in vivo at 20 mg/kg ([3]; subcutaneous, mice): 46%
Clc1cccc(OC2CN(CCc3ccccc3)CCc3ccccc32)c1 (centres unmarked) [1-(m-Chlorophenoxy)-3-(2-phenylethyl)-2,3,4,5-tetrahydro-3-benzazepine oxalate]	–	–	inhibition in vivo at 25 mg/kg ([3]; subcutaneous, mice): 42%
COc1cc2c(cc1OC)C(Oc1ccc(C(F)(F)F)cc1)CN(C)CC2.Cl (centres unmarked) [7,8-Dimethoxy-3-methyl-2,3,4,5-tetrahydro-1-(p-trifluoromethylphenoxy)-3-benzazepine hydrochloride]	–	43	inhibition in vivo at 5.7 mg/kg ([3]; subcutaneous, 5.7 mg/kg, mice): 50%
CNCCN1CCc2ccccc2C(Oc2ccc(C(F)(F)F)cc2)C1.O=C(O)C(=O)O.O=C(O)C(=O)O (centres unmarked) [3-(2-Methylaminoethyl)-2,3,4,5-tetrahydro-1-(p-trifluoromethylphenoxy)-3-benzazepine dioxalate]	–	33	–
COc1ccc(OC2CNCCc3cc(OC)c(OC)cc32)cc1.O=C(O)/C=C\C(=O)O (centres unmarked) [7,8-Dimethoxy-1-(4-methoxyphenoxy)-2,3,4,5-tetrahydro-3-benzazepine maleate]	0.9	–	–
NCCN1CCc2ccccc2C(Oc2ccc(C(F)(F)F)cc2)C1.O=C(O)C(=O)O.O=C(O)C(=O)O (centres unmarked) [3-(2-Aminoethyl)-2,3,4,5-tetrahydro-1-(p-trifluoromethylphenoxy)-3-benzazepine dioxalate]	–	61	–
COc1ccc(OC2CN(C)CCc3cc(OC)c(OC)cc32)cc1 (centres unmarked) [7,8-Dimethoxy-1-(4-methoxyphenoxy)-3-methyl-2,3,4,5-tetrahydro-3-benzazepine hydrochloride]	–	–	inhibition in vivo at 7.6 mg/kg ([3]; subcutaneous, 7.6 mg/kg, mice): 50%
Br.Cc1ccc(OC2CN(C)CCc3ccccc32)cc1 (centres unmarked) [3-Methyl-1-(p-methylphenoxy)-2,3,4,5-tetrahydro-3-benzazepine Hydrobromide]	–	35	–
CNCCCN1c2ccccc2CCc2ccccc21 [desipramine, reference compound]	–	–	ED50 [4]: 2.3 mg/kg
COc1cc2c(cc1OC)C(Oc1ccc(F)cc1)CNCC2.O=C(O)/C=C\C(=O)O (centres unmarked) [7,8-Dimethoxy-1-(4-fluorophenoxy)-2,3,4,5-tetrahydro-3-benzazepine maleate]	2.9	–	–
CC(CN)N1CCc2ccccc2C(Oc2ccc(C(F)(F)F)cc2)C1 (centres unmarked) [3-(2-Amino-1-methyl)ethyl-2,3,4,5-tetrahydro-1-(p-trifluoromethylphenoxy)-3-benzazepine dioxalate]	–	51	–
Clc1cccc(OC2CN(CC3CC3)CCc3ccccc32)c1 (centres unmarked) [1-(m-Chlorophenoxy)-3-cyclopropylmethyl-2,3,4,5-tetrahydro-3-benzazepine oxalate]	–	–	inhibition in vivo at 25 mg/kg ([3]; subcutaneous, mice): 66%
NCCN1CCc2ccccc2C(Oc2cccc(Cl)c2)C1.O=C(O)C(=O)O.O=C(O)C(=O)O (centres unmarked) [3-(2-Aminoethyl)-1-(m-chlorophenoxy)-2,3,4,5-tetrahydro-3-benzazepine dioxalate]	–	–	ED50 [4]: 7.5 mg/kg
FC(F)(F)c1ccc(OC2CNCCc3ccccc32)cc1.O=C(O)C(=O)O (centres unmarked) [1-(p-Trifluoromethylphenoxy)-2,3,4,5-tetrahydro-3-benzazepine oxalate]	2.9	–	–
COc1cc2c(cc1OC)C(Oc1ccc(C)cc1)CN(C)CC2 (centres unmarked) [7,8-Dimethoxy-3-methyl-1-(4-methylphenoxy)-2,3,4,5-tetrahydro-3-benzazepinemaleate]	0.9	–	–
COc1cc2c(cc1OC)C(Oc1ccccc1)CNCC2.O=C(O)C(=O)O (centres unmarked) [7,8-Dimethoxy-1-phenoxy-2,3,4,5-tetrahydro-3-benzazepine oxalate]	0.85	–	ED50 [4]: 3.7 mg/kg
CCC(=O)O[C@](Cc1ccccc1)(c1ccccc1)[C@H](C)CN(C)C [propoxyphene, reference compound]	–	–	inhibition in vivo at 3.9 mg/kg ([3]; read-out: Inhibition of Writhing): 50%
COc1cc2c(cc1OC)C(Oc1ccc(C(F)(F)F)cc1)CNCC2 (centres unmarked) [7,8-Dimethoxy-2,3,4,5-tetrahydro-1-(p-trifluoromethylphenoxy)-3-benzazepineoxalate]	–	49	–
COc1cc2c(cc1OC)C(Oc1cccc(Cl)c1)CNCC2.O=C(O)C(=O)O (centres unmarked) [1-(m-Chlorophenoxy)-7,8-dimethoxy-2,3,4,5-tetrahydro-3-benzazepine oxalate]	1.1	–	ED50 [4]: 4.2 mg/kg
